In patent publication US20240408169A1 (priority 2023, published 2024):
Like-named read-outs stand apart in the source and are kept apart here. *1 amine or outer side, *2 acyl side, *3 side chain or, on linkers, in order; H or OH if unused. Where a SMILES comes first, the peptide text is derived from it. Bridges are numbered along the chain shown (N, C = ends). [ ]: non-standard residue; d: D form. The star is where a group is joined. X126 = CC(C)C(=O)N1[C@H]2COC[C@@H]1C=C(c1ccc(F)cc1C[C@@H](C(=O)[*:2])N(C)[*:1])C2; X98 = CN1CC2(C1)OCc1cc(-c3ccc(Cl)cc3C[C@@H](C(=O)[*:2])N(C)[*:1])ccc12; X90 = CC(=O)N1CC=C(c2ccc(Cl)cc2C[C@@H](C(=O)[*:2])N(C)[*:1])CC1; X216 = CN1CCC(c2ccc(Cl)cc2C[C@@H](C(=O)[*:2])N(C)[*:1])=CC1=O; NMehhhLys(Me) = CN([C@@H](CCCCCCCN(C)[*:3])C(=O)[*:2])[*:1]; X215 = Cc1noc(C)c1-c1ccc(Cl)cc1C[C@@H](C(=O)[*:2])N(C)[*:1]; X66 = CN([C@@H](Cc1cc(Cl)ccc1-c1cccnc1)C(=O)[*:2])[*:1]; NMe(hhhLys) = CN([C@@H](CCCCCCCN[*:3])C(=O)[*:2])[*:1]; NMe3Pal(2-OMe,5-Cl) = CN[C@@H](Cc1cc(Cl)cnc1OC)C(=O)O; X213 = CN([C@@H](Cc1cc(Cl)cc2c1cnn2C)C(=O)[*:2])[*:1]; X214 = CC(C)Cc1ccc(Cl)cc1C[C@@H](C(=O)[*:2])N(C)[*:1]; cBuCO(3,3-F2-1-CF3) = O=C(C1(C(F)(F)F)CC(F)(F)C1)*; NMePhe(2,5-Cl2) = CN[C@@H](Cc1cc(Cl)ccc1Cl)C(=O)O; Pro(trans-4-F) = O=C(O)[C@@H]1C[C@@H](F)CN1; Gly(cPr) = N[C@H](C(=O)O)C1CC1

Columns and labels:
CyclinA2/CDK2 = biological target: T1, CyclinA2/CDK2 (Homo sapiens, UniProt P20248); test: Fluorescence Polarization (FP) competitive binding assay, Cyclin A2/Cdk2;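 also: plates equilibrated two hours at room temperature before polarization reading, IC50 fitted from eight-concentration compound titration curves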
T1 construct: purchased CRELUX Protein Services

CyclinB1/CDK1 = biological target: T2, CyclinB1/CDK1 (Homo sapiens, UniProt P14635); test: Fluorescence Polarization (FP) competitive binding assay, Cyclin B1/Cdk1;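 also: fluorescence polarization read after equilibration at room temperature, with IC50 taken from serially diluted dose-response curves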
T2 construct: purchased Eurofins, discovery 14-450

CyclinE1/CDK2 = biological target: T3, CyclinE1/CDK2 (Homo sapiens, UniProt P24864); test: Fluorescence Polarization (FP) competitive binding assay, Cyclin E1/Cdk2;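 also: readings taken after two-hour equilibration at room temperature in HEPES buffer with NaCl, DTT, NP-40 and BSA, IC50 fitted from eight-concentration serial dilution series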
T3 construct: purchased Eurofins, discovery 14-475

NCI-H1048 cells = test: MTT proliferation assay, NCI-H1048; assay type: cell-based; settings: 5 days compound exposure, 1:3 serial dilution starting at 10 μM;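 also: Dose-response in 96-well plates over 8 or 10 concentration points, with exposure spanning 3-4 cell doublings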
OVCAR3 cells = test: MTT proliferation assay, OVCAR3; assay type: cell-based; settings: 5 days compound exposure, 1:3 serial dilution starting at 10 μM;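 also: compound given as an 8- or 10-point series, one day after plating, with exposure covering roughly 3-4 cell doublings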
[1] = 8 nM Cyclin A2/Cdk2, 2 nM FAM probe, average of 2-3 independent experiments, read-out: Cyclin A FP IC50
[2] = 10 nM Cyclin B1/Cdk1, 2 nM FAM probe; average of 2-3 independent experiments; read-out: Cyclin B FP IC50
[3] = 10 nM Cyclin E1/Cdk2, 2 nM FAM probe, average of 2-3 independent experiments, read-out: Cyclin E FP IC50
[4] = read-out: Cyclin B FP IC50; 10 nM Cyclin B1/Cdk1, 2 nM FAM probe; average of 2-3 independent experiments

Structure (SMILES) | IC50 (CyclinA2/CDK2; [1]) [nM] | IC50 (CyclinB1/CDK1; [2]) [nM] | IC50 (CyclinE1/CDK2; [3]) [nM] | GI50 (NCI-H1048 cells) [nM] | GI50 (OVCAR3 cells) [nM] | IC50 (CyclinA2/CDK2) [nM] | IC50 (CyclinB1/CDK1; [4]) [nM] | IC50 (CyclinE1/CDK2; Cyclin E FP IC50, 10 nM Cyclin E1/Cdk2, 2 nM FAM probe, average of 2-3 independent experiments) [nM] | IC50 (CyclinE1/CDK2) [nM]
CC(C)C[C@@H]1NC(=O)[C@@H](N(C)C(=O)[C@@H](NC(=O)[C@@H]2C[C@@H](F)CN2C(=O)C2(C(F)(F)F)CC(F)(F)C2)C2CC2)CCCCCCCNC(=O)[C@H](Cc2cc(F)ccc2C2=C[C@H]3COC[C@@H](C2)N3C(=O)C(C)C)N(C)C1=O [Example 326] ({cBuCO(3,3-F2-1-CF3)}-[Pro(trans-4-F)][Gly(cPr)][NMe(hhhLys)]L[X126]; lactam 3-C) | 20 | 20 | 150 | 10 | 10 |  |  |  | 
Cc1noc(C)c1-c1ccc(Cl)cc1C[C@H]1C(=O)N(C)CCCCCCC[C@H](N(C)C(=O)[C@@H](NC(=O)[C@@H]2C[C@@H](F)CN2C(=O)C2(C(F)(F)F)CC(F)(F)C2)C2CC2)C(=O)N[C@@H](CC(C)C)C(=O)N1C [Example 210] ({cBuCO(3,3-F2-1-CF3)}-[Pro(trans-4-F)][Gly(cPr)][NMehhhLys(Me)]L[X215]; lactam 3-C) |  |  |  | 100 | 110 | 420 | 20 |  | 
CC(C)C[C@@H]1NC(=O)[C@@H](N(C)C(=O)[C@@H](NC(=O)[C@@H]2C[C@@H](F)CN2C(=O)C2(C(F)(F)F)CC(F)(F)C2)C2CC2)CC=CCCCCN(C)C(=O)[C@H](Cc2cc(Cl)ccc2Cl)N(C)C1=O [Example 14] |  | 20 | 340 | 100 | 200 |  |  |  | 
CC(C)C[C@@H]1NC(=O)[C@@H](N(C)C(=O)[C@@H](NC(=O)[C@@H]2C[C@@H](F)CN2C(=O)C2(C(F)(F)F)CC(F)(F)C2)C2CC2)CCCCCCCN(C)C(=O)[C@H](Cc2cc(Cl)cc3c2cnn3C)N(C)C1=O [Example 424] ({cBuCO(3,3-F2-1-CF3)}-[Pro(trans-4-F)][Gly(cPr)][NMehhhLys(Me)]L[X213]; lactam 3-C) |  | 45.5 | 3820 | 2510 | 1780 |  |  |  | 
CC(C)Cc1ccc(Cl)cc1C[C@H]1C(=O)NCCCCCCC[C@H](N(C)C(=O)[C@@H](NC(=O)[C@@H]2C[C@@H](F)CN2C(=O)C2(C(F)(F)F)CC(F)(F)C2)C2CC2)C(=O)N[C@@H](CC(C)C)C(=O)N1C [Example 64] ({cBuCO(3,3-F2-1-CF3)}-[Pro(trans-4-F)][Gly(cPr)][NMe(hhhLys)]L[X214]; lactam 3-C) | 380 | 20 |  | 510 | 1240 |  |  |  | 
CC(C)C[C@@H]1NC(=O)[C@@H](N(C)C(=O)[C@@H](NC(=O)[C@@H]2C[C@@H](F)CN2C(=O)C2(C(F)(F)F)CC(F)(F)C2)C2CC2)CCCCCCCNC(=O)[C@H](Cc2cc(Cl)ccc2-c2ccc3c(c2)COC32CN(C)C2)N(C)C1=O [Example 395] ({cBuCO(3,3-F2-1-CF3)}-[Pro(trans-4-F)][Gly(cPr)][NMe(hhhLys)]L[X98]; lactam 3-C) |  |  |  | 20 | 10 |  |  |  | 
CC(C)C[C@@H]1NC(=O)[C@@H](N(C)C(=O)[C@@H](NC(=O)[C@@H]2C[C@@H](F)CN2C(=O)C2(C(F)(F)F)CC(F)(F)C2)C2CC2)CC=CCCCCNC(=O)[C@H](Cc2cc(Cl)ccc2-c2cccc(Cl)c2)N(C)C1=O [Example 19] | 430 | 20 |  | 550 | 1760 |  |  |  | 
CC(C)C[C@@H]1NC(=O)[C@@H](N(C)C(=O)[C@@H](NC(=O)[C@@H]2C[C@@H](F)CN2C(=O)C2(C(F)(F)F)CC(F)(F)C2)C2CC2)CCCCCCCN(C)C(=O)[C@H](Cc2cc(Cl)ccc2C2=CC(=O)N(C)CC2)N(C)C1=O [Example 237] ({cBuCO(3,3-F2-1-CF3)}-[Pro(trans-4-F)][Gly(cPr)][NMehhhLys(Me)]L[X216]; lactam 3-C) |  |  |  | 10 | 40 |  | 20 | 1140 | 
CC(C)C[C@@H]1NC(=O)[C@@H](N(C)C(=O)[C@@H](NC(=O)[C@@H]2C[C@@H](F)CN2C(=O)C2(C(F)(F)F)CC(F)(F)C2)C2CC2)CCCCCCCNC(=O)[C@H](Cc2cc(Cl)ccc2Cl)N(C)C1=O [Example 7] ({cBuCO(3,3-F2-1-CF3)}-[Pro(trans-4-F)][Gly(cPr)][NMe(hhhLys)]L[NMePhe(2,5-Cl2)]; lactam 3-C) |  | 20 | 290 | 20 | 50 |  |  |  | 
COc1ncc(Cl)cc1C[C@H]1C(=O)N(C)CCCCCCC[C@H](N(C)C(=O)[C@@H](NC(=O)[C@@H]2C[C@@H](F)CN2C(=O)C2(C(F)(F)F)CC(F)(F)C2)C2CC2)C(=O)N[C@@H](CC(C)C)C(=O)N1C [Example 222] ({cBuCO(3,3-F2-1-CF3)}-[Pro(trans-4-F)][Gly(cPr)][NMehhhLys(Me)]L[NMe3Pal(2-OMe,5-Cl)]; lactam 3-C) |  |  |  | 10 | 10 |  | 20 |  | 230
CC(=O)N1CC=C(c2ccc(Cl)cc2C[C@H]2C(=O)N(C)CCCCCCC[C@H](N(C)C(=O)[C@@H](NC(=O)[C@@H]3C[C@@H](F)CN3C(=O)C3(C(F)(F)F)CC(F)(F)C3)C3CC3)C(=O)N[C@@H](CC(C)C)C(=O)N2C)CC1 [Example 50, (2S,4R)—N—((S)-2-(((3S,6S,9S)-3-(2-(1-acetyl-1,2,3,6-tetrahydropyridin-4-yl)-5-chlorobenzyl)-6-isobutyl-1,4-dimethyl-2,5,8-trioxo-1,4,7-triazacyclohexadecan-9-yl)(methyl)amino)-1-cyclopropyl-2-oxoethyl)-1-(3,3-difluoro-1-(trifluoromethyl)cyclobutane-1-carbonyl)-4-fluoropyrrolidine-2-carboxamide] ({cBuCO(3,3-F2-1-CF3)}-[Pro(trans-4-F)][Gly(cPr)][NMehhhLys(Me)]L[X90]; lactam 3-C) |  | 20 | 1220 | 10 | 10 |  |  |  | 
CC(C)C[C@@H]1NC(=O)[C@@H](N(C)C(=O)[C@@H](NC(=O)[C@@H]2C[C@@H](F)CN2C(=O)C2(C(F)(F)F)CC(F)(F)C2)C2CC2)CC=CCCCCNC(=O)[C@H](Cc2cc(Cl)ccc2C2=CCC(F)(F)CC2)N(C)C1=O [Example 22] | 210 | 20 |  | 1100 | 1800 |  |  |  | 
CC(C)C[C@@H]1NC(=O)[C@@H](N(C)C(=O)[C@@H](NC(=O)[C@@H]2C[C@@H](F)CN2C(=O)C2(C(F)(F)F)CC3(CCC3)C2)C2CC2)CC=CCCCCNC(=O)[C@H](Cc2cc(Cl)ccc2Cl)N(C)C1=O (single isomer, unassigned) [Example 16-P2] |  | 20 | 2710 | 350 | 990 |  |  |  | 
CC(C)C[C@@H]1NC(=O)[C@@H](N(C)C(=O)[C@@H](NC(=O)[C@@H]2C[C@@H](F)CN2C(=O)C2(C(F)(F)F)CC3(CCC3)C2)C2CC2)CC=CCCCCNC(=O)[C@H](Cc2cc(Cl)ccc2Cl)N(C)C1=O (single isomer, unassigned) [Example 16-P1] |  | 20 | 3150 | 340 | 880 |  |  |  | 
CC(C)C[C@@H]1NC(=O)[C@@H](N(C)C(=O)[C@@H](NC(=O)[C@@H]2C[C@@H](F)CN2C(=O)C2(C(F)(F)F)CC(F)(F)C2)C2CC2)CCCCCCCN(C)C(=O)[C@H](Cc2cc(Cl)ccc2-c2cccnc2)N(C)C1=O [Example 196] ({cBuCO(3,3-F2-1-CF3)}-[Pro(trans-4-F)][Gly(cPr)][NMehhhLys(Me)]L[X66]; lactam 3-C) |  | 20 | 740 | 10 | 10 |  |  |  | 
